Assay [1] has as its system 5-hydroxytryptamine receptor 2A (Oryctolagus cuniculus). Kind of assay: Binding affinity for 5-hydroxytryptamine 2A receptor of rabbit aorta ring preparations.
Assay [2] concerns 5-hydroxytryptamine receptor 1B (Oryctolagus cuniculus). Kind of assay: Binding affinity against vascular 5-hydroxytryptamine 1B receptor, measured using ring preparations of rabbit saphenous vein (RbSV).
The subject of assay [3] is Adrenergic receptor alpha-1 (Oryctolagus cuniculus). The assay is described as follows: Alpha-1 adrenergic receptor affinity using ring preparations of rabbit thoracic aorta (RbTA).
Assay [4] deals with T1, 5-hydroxytryptamine receptor 2C (Rattus norvegicus, UniProt P08909).
T1 sequence (P08909 whole entry): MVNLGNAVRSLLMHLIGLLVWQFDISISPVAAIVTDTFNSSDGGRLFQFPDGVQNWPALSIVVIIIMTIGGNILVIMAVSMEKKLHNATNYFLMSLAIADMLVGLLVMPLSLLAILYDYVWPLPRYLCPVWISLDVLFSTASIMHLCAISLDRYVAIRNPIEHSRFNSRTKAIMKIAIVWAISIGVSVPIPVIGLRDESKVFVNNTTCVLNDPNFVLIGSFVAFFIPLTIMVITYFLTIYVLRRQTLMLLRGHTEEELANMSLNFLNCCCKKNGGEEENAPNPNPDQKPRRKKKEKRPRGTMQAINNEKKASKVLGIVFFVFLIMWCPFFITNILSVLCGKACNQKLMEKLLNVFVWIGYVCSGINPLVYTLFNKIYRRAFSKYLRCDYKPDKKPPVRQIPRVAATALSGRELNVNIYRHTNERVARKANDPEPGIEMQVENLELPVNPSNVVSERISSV
Kind of assay: Binding affinity against 5-hydroxytryptamine 2C receptor in rat cortex homogenates. Format: tissue-based.

The target in assay [5] is T2, 5-hydroxytryptamine receptor 1A (Rattus norvegicus, UniProt P19327).
T2 sequence (P19327 whole entry): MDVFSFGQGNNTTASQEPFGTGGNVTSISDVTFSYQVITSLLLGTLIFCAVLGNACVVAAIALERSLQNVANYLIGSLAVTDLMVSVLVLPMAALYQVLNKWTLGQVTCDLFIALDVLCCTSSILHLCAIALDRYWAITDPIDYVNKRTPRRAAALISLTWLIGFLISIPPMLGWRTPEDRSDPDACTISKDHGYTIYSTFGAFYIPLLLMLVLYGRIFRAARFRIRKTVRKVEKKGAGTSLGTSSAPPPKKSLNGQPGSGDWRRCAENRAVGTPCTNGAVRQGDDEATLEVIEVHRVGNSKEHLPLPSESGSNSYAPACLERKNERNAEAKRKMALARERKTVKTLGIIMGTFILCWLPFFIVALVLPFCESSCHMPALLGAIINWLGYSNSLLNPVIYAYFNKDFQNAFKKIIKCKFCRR
Kind of assay: Binding affinity against 5-hydroxytryptamine 1A receptor in rat cortex homogenates. Format: tissue-based.

The test system of assay [6] is 5-hydroxytryptamine receptor 1B (Oryctolagus cuniculus). The assay is described as follows: The vascular 5-hydroxytryptamine 1B receptor affinity was assessed using ring preparations of rabbit saphenous vein (RbSV).
Assay [7] shares this test system. Kind of assay: The vascular 5-hydroxytryptamine 1B receptor affinity was assessed using ring preparations of rabbit saphenous vein(RbSV).

Data on 47 molecules can be found in ChEMBL document CHEMBL1132291, “Synthesis and serotonergic activity of substituted 2, N-benzylcarboxamido-5-(2-ethyl-1-dioxoimidazolidinyl)-N, N-dimethyltryptamine derivatives: novel antagonists for the vascular 5-HT(1B)-like receptor” (J Med Chem, 1999).

Structures are written as SMILES.

Consider `CN(C)CCc1c(C(N)=O)[nH]c2ccc(CCN3C(=O)CNC3=O)cc12`, for which the pKB in assay [1] and in assay [2] was < 5 in each case.
With `CC(NC(=O)c1[nH]c2ccc(CCN3C(=O)NC(C)(C)C3=O)cc2c1CCN(C)C)c1ccccc1` (stereo unspecified), the pKB in assay [1] is 5.59; in assay [2], 5.5; in assay [3], 4.65.
Take `CN(C)CCc1c(C(=O)NCc2ccccc2N)[nH]c2ccc(CCN3C(=O)CNC3=O)cc12`: the pKB in assay [2] was found to be 6.67; in assay [3] it was 5.73.
The like results for `CN(C)CCc1c(C(=O)Nc2ccccc2)[nH]c2ccc(CCN3C(=O)NC(C)(C)C3=O)cc12` were, in that order, 5.21 and 4.86.
Taken in the same sequence, the figures for `CN(C)CCc1c(C(=O)NCc2ccc(Cl)c(Cl)c2)[nH]c2ccc(CCN3C(=O)NC(C)(C)C3=O)cc12` were 6.5 and 5.
Turning to `CN(C)CCc1c(C(=O)NCc2ccccc2)[nH]c2ccc(CCN3C(=O)N(C)C(C)(c4ccccc4)C3=O)cc12` (stereo unspecified), the pKB in assay [2] amounted to 7.19; in assay [3], 5.5.
As for `CN(C)CCc1c(C(=O)NCc2ccccc2)[nH]c2ccc(CCN3C(=O)NC(C)(C)C3=O)cc12`, the pKB amounted to 5.6 in assay [1], 7.09 in assay [2] and 5.2 in assay [3]. Further, the Ki in assay [4] was 2.19 µM; in assay [5], 14.8 µM.
Consider `CN(C)CCc1c(C(=O)NCc2ccc(-c3ccccc3)cc2)[nH]c2ccc(CCN3C(=O)NC(C)(C)C3=O)cc12`, for which the pKB came to 5.77 in assay [2] and 5 in assay [3].
`CCCCNC(=O)c1[nH]c2ccc(CCN3C(=O)CNC3=O)cc2c1CCN(C)C`: the pKB in assay [1] is 5.2; in assay [2], 5.94.
As for `CN(C)CCc1c(C(=O)NCc2ccc(S(C)(=O)=O)cc2)[nH]c2ccc(CCN3C(=O)NC(C)(C)C3=O)cc12`, the pKB in assay [2] turned out to be 5.91; in assay [3], 4.52.
Taken in the same sequence, the figures for `CN(C)CCc1c(C(=O)NCc2ccccc2N)[nH]c2ccc(CCN3C(=O)N(C)C(C)(c4ccccc4)C3=O)cc12` (stereo unspecified) were 6.64 and 4.78.
Taken in the same sequence, the figures for `CC(=O)Nc1cccc(CNC(=O)c2[nH]c3ccc(CCN4C(=O)NC(C)(C)C4=O)cc3c2CCN(C)C)c1` were 5.68 and 4.5.
For the molecule `CN(C)CCc1c(C(=O)NCc2ccccc2)[nH]c2ccc(CCN3C(=O)NC(C)(c4ccccc4)C3=O)cc12` (stereo unspecified), the pKB in assay [2] was found to be 7.15; in assay [3], 5.27.
The like results for `CN(C)CCc1c(C(=O)NN)[nH]c2ccc(CCN3C(=O)NC(C)(C)C3=O)cc12` were, in that order, 5.48 and < 4.5.
Take `CN(C)CCc1c(C(=O)N(C)C)[nH]c2ccc(CCN3C(=O)CNC3=O)cc12`: the pKB in assay [1] and in assay [2] was < 5 each time.
Turning to `CN(C)CCc1c(C(=O)NCc2ccccc2Cl)[nH]c2ccc(CCN3C(=O)NC(C)(C)C3=O)cc12`, the pKB in assay [2] is 5.81; in assay [3], 5.35.
As to `CN(C)CCc1c(C(=O)NCc2ccc(F)cc2)[nH]c2ccc(CCN3C(=O)NC(C)(C)C3=O)cc12`, the figures for the pKB in assay [2] and in assay [3] were 7.3 and 5.46, respectively.
Taken in the same sequence, the figures for `CN(C)CCc1c(C(=O)NCc2ccccc2)[nH]c2ccc(CCN3C(=O)C4CCCN4C3=O)cc12` (stereo unspecified) were 6.66 and 5.31.
For the molecule `CCCCNC(=O)c1[nH]c2ccc(CCN3C(=O)NC(C)(C)C3=O)cc2c1CCN(C)C`, the pKB in assay [1] is < 5; in assay [2], 5.47.
Consider `CN(C)CCc1c(C(=O)NCc2ccc(Cl)cc2)[nH]c2ccc(CCN3C(=O)CNC3=O)cc12`, for which the pKB in assay [1] was determined as 6.31; in assay [2] it was 7.74; in assay [3] it was 6.47.
In the case of `CN(C)CCc1c(C(=O)NCc2ccc(C(F)(F)F)cc2)[nH]c2ccc(CCN3C(=O)NC(C)(C)C3=O)cc12`, the pKB in assay [2] was 6.2; in assay [3] it was < 5.
With `CN(C)CCc1c(C(=O)NCc2ccc(N)cc2)[nH]c2ccc(CCN3C(=O)NC(C)(C)C3=O)cc12`, the pKB was found to be 6.19 in assay [2] and 4.52 in assay [3].
`CC(=O)Nc1ccccc1CNC(=O)c1[nH]c2ccc(CCN3C(=O)NC(C)(C)C3=O)cc2c1CCN(C)C`: the values for the pKB in assay [6] and in assay [3] were 6.04 and < 5, respectively.
On to `COc1ccc(CNC(=O)c2[nH]c3ccc(CCN4C(=O)NC(C)(C)C4=O)cc3c2CCN(C)C)cc1`, for which the results for the pKB in assay [7] and in assay [3] were 6.54 and 4.73, respectively.
Take `CN(C)CCc1c(C(=O)NCc2cccc(N)c2)[nH]c2ccc(CCN3C(=O)NC(C)(C)C3=O)cc12`: the pKB in assay [2] is 6.52; in assay [3], 4.58.
The like results for `CN(C)CCc1c(C(=O)NCc2ccccc2)[nH]c2ccc(CCN3C(=O)NC(c4ccccc4)(c4ccccc4)C3=O)cc12` were, in that order, 6.44 and 5.
Regarding `CN(C)CCc1c(C(=O)NCc2ccc(Cl)cc2)[nH]c2ccc(CCN3C(=O)NC(C)(C)C3=O)cc12`, the pKB is 7.59 in assay [2] and 5.86 in assay [3].
With `CN(C)CCc1c(C(=O)NCc2ccc(NS(C)(=O)=O)cc2)[nH]c2ccc(CCN3C(=O)NC(C)(C)C3=O)cc12`, the pKB in assay [2] is 5.65; in assay [3], < 4.5.
Taken in the same sequence, the figures for `CN(C)CCc1c(C(=O)NCc2ccccc2N)[nH]c2ccc(CCN3C(=O)NC(c4ccccc4)(c4ccccc4)C3=O)cc12` were 6.31 and 5.43.
On to `CONC(=O)c1[nH]c2ccc(CCN3C(=O)NC(C)(C)C3=O)cc2c1CCN(C)C`, for which the pKB in assay [2] is 5.4; in assay [3], < 4.5.
The like results for `CN(C)CCc1c(C(=O)NCc2ccccc2N)[nH]c2ccc(CCN3C(=O)NC(C)(c4ccccc4)C3=O)cc12` (stereo unspecified) were, in that order, 6.65 and 5.21.
The like results for `CN(C)CCc1c(C(=O)NCc2ccccc2N)[nH]c2ccc(CCN3C(=O)NC(C)(C)C3=O)cc12` were, in that order, 6.72 and 4.79.
Turning to `CN(C)CCc1c(C(=O)NCc2cccc3ccccc23)[nH]c2ccc(CCN3C(=O)NC(C)(C)C3=O)cc12`, the pKB in assay [2] amounted to 5.5.
As to `CN(C)CCc1c(C(=O)NCC(N)=O)[nH]c2ccc(CCN3C(=O)NC(C)(C)C3=O)cc12`, the pKB in assay [2] was < 5.
For the molecule `CN(C)CCc1c(C(=O)NCc2ccccc2)[nH]c2ccc(CCN3C(=O)NC4(CCCC4)C3=O)cc12`, the pKB was 7.2 in assay [2] and 5.48 in assay [3].
Regarding `CN(C)CCc1c(C(=O)NCCc2ccccc2)[nH]c2ccc(CCN3C(=O)NC(C)(C)C3=O)cc12`, the pKB in assay [1] is 5.35; in assay [2], 5.57.
`CN(C)CCc1c(C(=O)NCc2cccc(Cl)c2)[nH]c2ccc(CCN3C(=O)NC(C)(C)C3=O)cc12` gave a pKB in assay [2] of 6.45.
With `CN(C)CCc1c(C(=O)N(C)Cc2ccccc2)[nH]c2ccc(CCN3C(=O)NC(C)(C)C3=O)cc12`, the pKB in assay [1] turned out to be 6.03; in assay [2], 5.8; in assay [3], 5.8.
For the molecule `CN(C)CCc1c(C(=O)NCc2cccc(NS(C)(=O)=O)c2)[nH]c2ccc(CCN3C(=O)NC(C)(C)C3=O)cc12`, the results for the pKB in assay [2] and in assay [3] were 5.67 and 4.51, respectively.
The like results for `CN(C)CCc1c(C(=O)NCc2ccccc2O)[nH]c2ccc(CCN3C(=O)NC(C)(C)C3=O)cc12` were, in that order, 6.61 and 5.
Consider `CCOC(=O)c1[nH]c2ccc(CCN3C(=O)CNC3=O)cc2c1CCN(C)C`, for which the pKB in assay [1] was < 5; in assay [2], 7.42; in assay [3], 5.43.
In the case of `CNC(=O)c1[nH]c2ccc(CCN3C(=O)CNC3=O)cc2c1CCN(C)C`, the results for the pKB in assay [1] and in assay [2] were < 5 and 5.94, respectively.
Regarding `Cc1ccc(CNC(=O)c2[nH]c3ccc(CCN4C(=O)NC(C)(C)C4=O)cc3c2CCN(C)C)cc1`, the pKB stood at 7 in assay [2] and 6 in assay [3].
Regarding `CN(C)CCc1c(C(=O)NCc2ccccc2)[nH]c2ccc(CCN3C(=O)CNC3=O)cc12`, the pKB was found to be 6.09 in assay [1], 7.36 in assay [2] and 5.77 in assay [3]. In addition, the Ki is 1.91 µM in assay [4] and 67.6 µM in assay [5].
In the case of `C#CCNC(=O)c1[nH]c2ccc(CCN3C(=O)NC(C)(C)C3=O)cc2c1CCN(C)C`, the negative logarithm of the KB (pKB) in assay [2] is 5.44; in assay [3], 4.62.
Take `CON(C)C(=O)c1[nH]c2ccc(CCN3C(=O)CNC3=O)cc2c1CCN(C)C`: the results for the pKB in assay [1] and in assay [2] were 5.3 and 5.76, respectively.
`COc1cccc(CNC(=O)c2[nH]c3ccc(CCN4C(=O)NC(C)(C)C4=O)cc3c2CCN(C)C)c1`: the pKB is 6.47 in assay [2] and 5.17 in assay [3].
